Reference: patent publication US20260028355A1, “PROTEOLYSIS TARGETING CHIMERA (PROTAC) COMPOSITIONS USING UBIQUITIN CONJUGATING ENZYME LIGANDS” (Berg LLC, priority 2022, published 2026)

Experiments:
BRD4 = target: T1, BRD4 (Homo sapiens, UniProt O60885); assay: Dose dependent degradation of BRD4 in HeLa cells (FIG. 2); type: cell-based
T1 construct: dose dependent degradation of BRD4 in HeLa cells; endogenous in cells; host or cells: HeLa
Excerpt: FIG. 2 illustrates the dose dependent degradation of BRD4 in HeLa cells using E2 binding PROTACS based on the present disclosure.
Dose Dependent Degradation of BRD4 in HeLa Cells
Compounds 6, 7, and 9 were then investigated for their ability to degrade BRD4.

UBE2K = target: T2, UBE2K (Homo sapiens, UniProt P61086); assay: UBE2K dissociation constant (Kd) by surface plasmon resonance (Biacore S200); type: binding; conditions: SPR, steady state fitting; immobilized biotinylated UBE2K-Ub complex and UBE2K wild type
T2 sequence (P61086 1-200): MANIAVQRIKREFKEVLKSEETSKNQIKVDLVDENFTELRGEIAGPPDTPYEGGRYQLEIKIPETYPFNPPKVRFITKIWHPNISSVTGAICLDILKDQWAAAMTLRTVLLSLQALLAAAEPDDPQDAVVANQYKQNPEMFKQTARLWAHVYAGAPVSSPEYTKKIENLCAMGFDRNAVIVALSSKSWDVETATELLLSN
Experimental: UBE2K Dissociation Constant (Kd) of E2-binder Compound 1
UBE2K Ligand binding to mono-Ub UBE2K and UBE2K was measured by Surface plasma resonance using a Biacore SPR S200 instrument. The proteins and ligands were prepared for experimental measurement as described below.
Avi tagged proteins were biotinylated and were immobilized on a Series S/Sensor Chip SA. Proteins were immobilized based on their molar weight as follows -Biotinylated Avi peptide (1000 μM), Biotinylated UBE2K-Ub Complex (12 μM) and Biotinylated UBE2K Wild Type (3 μM). Proteins were immobilized using a buffer comprised of 1X HBS-N Buffer+0.05% Tween 20 (250 mL). A stock of Compound 1 was prepared in affinity buffer comprised of 1% DMSO, 1×PBS-P+Buffer. Further dilution of stock were prepared in 0% DMSO, 1×PBS-P+Buffer or 3% DMSO, 1×PBS-P+Buffer and were used as running buffers. Compound 1 was prepared as 2 mM or 750 μM stocks in the buffers described above. Titration was performed using the Liquid handler/TECAN EVO (WALL-E) as follows. 1 or 2, 96 deep well plates (1.2 mL) were used for performing titrations-Aliquoted 3% DMSO, 1×PBS-P+buffer. 1:2 dilution was performed by WALL-E (250 μL+250 μL) for the rest of titrations till 3.12 μM. The titrations of Compound 1 was then transferred to 384 deep well plate in duplicates side-by-side (125 μL) each. […]

UBE2K-Ub = assay: E2 binding capacity of PROTACs (FIG. 1)
Excerpt: UBE2K binder Compound 1 was used as a precursor to generate PROTAC Compounds 2, 6, 7, and 9. See experimental section above. Each of these PROTACs were first tested for their ability to bind the E2 enzyme UBE2K.

loss of BRD4 (BRD4) | Structure (SMILES) | other results
concentration dependent loss of BRD4 | Cc1sc2c(c1C)C(c1ccc(Cl)cc1)=N[C@@H](CC(=O)NCCOCCOCCNC(=O)CSc1nc3ccccc3c3cc(CNC(=O)c4ccccc4OC(F)(F)F)nn13)c1nnc(C)n1-2 [Compound 9, (S)—N-((5-((14-(4-(4-chlorophenyl)-2,3,9-trimethyl-6H-thieno [3,2 f][1,2,4]triazolo [4,3-a][1,4]diazepin-6-yl)-2,13-dioxo-6,9-dioxa-3,12-diazatetradecyl)thio)pyrazolo[1,5-c]quinazolin-2-yl)methyl)-2-(trifluoromethoxy)benzamide] | 
 | O=C(NCc1cc2c3ccccc3nc(S)n2n1)c1ccccc1OC(F)(F)F [Compound 1, N-((5-thioxo-5,6-dihydropyrazolo[1,5-c]quinazolin-2-yl)methyl)-2-(trifluoromethoxy)benzamide] | Kd (UBE2K): 2110 nM
 | Cc1sc2c(c1C)C(c1ccc(Cl)cc1)=N[C@@H](CC(=O)NCCSc1nc3ccccc3c3cc(CNC(=O)c4ccccc4OC(F)(F)F)nn13)c1nnc(C)n1-2 [Compound 2, (S)—N-((5-((2-(2-(4-(4-chlorophenyl)-2,3,9-trimethyl-6H-thieno[3,2-f][1,2,4]triazolo[4,3-a][1,4]diazepin-6-yl)acetamido)ethyl)thio)pyrazolo[1,5-c]quinazolin-2-yl)methyl)-2-(trifluoromethoxy) benzamide] | binding to UBE2K-Ub (UBE2K-Ub): All compounds except for Compound 2 bind
concentration dependent loss of BRD4 | Cc1sc2c(c1C)C(c1ccc(Cl)cc1)=N[C@@H](CC(=O)NCCOCCNC(=O)CSc1nc3ccccc3c3cc(CNC(=O)c4ccccc4OC(F)(F)F)nn13)c1nnc(C)n1-2 [Compound 7, (S)—N-((5-((2-((2-(2-(2-(4-(4-chlorophenyl)-2,3,9-trimethyl-6H-thieno[3,2-f][1,2,4]triazolo[4,3-a][1,4]diazepin-6-yl)acetamido)ethoxy)ethyl)amino)-2-oxoethyl)thio)pyrazolo[1,5-c]quinazolin-2-yl)methyl)-2-(trifluoromethoxy)benzamide] | 
